Assay results published in article PMC8699473, “An Easily Expandable Multi-Drug LC-MS Assay for the Simultaneous Quantification of 57 Oral Antitumor Drugs in Human Plasma” (Cancers, 2021).

Assay: Long-term stability in spiked pooled human plasma

SMILES	Long-term stability, 1 month, -20°C Accuracy [%] (validation standard 2xLLOV)	Long-term stability, 1 month, -80°C Accuracy [%] (validation standard 2xLLOV)	Long-term stability, 2 month, -20°C Accuracy [%] (validation standard 2xLLOV)	Long-term stability, 2 month, -80°C Accuracy [%] (validation standard 2xLLOV)	Long-term stability, 3 month, -20°C Accuracy [%] (validation standard 2xLLOV)	Long-term stability, 3 month, -80°C Accuracy [%] (validation standard 2xLLOV)	Long-term stability, 6 weeks, 4°C, without daylight Accuracy [%] (validation standard 2xLLOV)	Long-term stability, 1 month, -20°C Accuracy [%] (validation standard MOV)	Long-term stability, 1 month, -80°C Accuracy [%] (validation standard MOV)	Long-term stability, 2 month, -20°C Accuracy [%] (validation standard MOV)	Long-term stability, 2 month, -80°C Accuracy [%] (validation standard MOV)	Long-term stability, 3 month, -20°C Accuracy [%] (validation standard MOV)	Long-term stability, 3 month, -80°C Accuracy [%] (validation standard MOV)	Long-term stability, 6 weeks, 4°C, without daylight Accuracy [%] (validation standard MOV)	Long-term stability, 1 month, -20°C Accuracy [%] (validation standard ULOV)	Long-term stability, 1 month, -80°C Accuracy [%] (validation standard ULOV)	Long-term stability, 2 month, -20°C Accuracy [%] (validation standard ULOV)	Long-term stability, 2 month, -80°C Accuracy [%] (validation standard ULOV)	Long-term stability, 3 month, -20°C Accuracy [%] (validation standard ULOV)	Long-term stability, 3 month, -80°C Accuracy [%] (validation standard ULOV)	further results
Cc1ccc(C(=O)Nc2ccc(CN3CCN(C)CC3)c(C(F)(F)F)c2)cc1C#Cc1cnc2cccnn12 [Ponatinib]	99.2	94.7	95.8	97.8	93.4	98.9	91.7	92.3	93.7	99.2	101.1	95.0	95.3	97.9	95.0	90.8	97.0	100.1	93.8	93.5	Long-term stability, 6 weeks, 4°C, without daylight Accuracy [%] (validation standard ULOV): 89.4%
O=C1CCC(N2C(=O)c3ccccc3C2=O)C(=O)N1 (centres unmarked) [Thalidomide]	75.6	74.9	58.1	79.7	50.7	79.8	–	66.7	73.1	57.0	77.9	50.8	75.0	–	68.6	66.3	42.5	79.5	33.5	78.0	Long-term stability, 1 month, -20°C Accuracy [%] (validation standard LLOV): 71.4%; Long-term stability, 1 month, -80°C Accuracy [%] (validation standard LLOV): 76.7%; Long-term stability, 2 month, -20°C Accuracy [%] (validation standard LLOV): 57.5%; Long-term stability, 2 month, -80°C Accuracy [%] (validation standard LLOV): 72.7%; Long-term stability, 3 month, -20°C Accuracy [%] (validation standard LLOV): 43.9%; Long-term stability, 3 month, -80°C Accuracy [%] (validation standard LLOV): 76.7%
CCC1=C[C@@H]2CN(C1)Cc1c([nH]c3ccccc13)[C@@](C(=O)OC)(c1cc3c(cc1OC)N(C)[C@H]1[C@@](O)(C(=O)OC)[C@H](OC(C)=O)[C@]4(CC)C=CCN5CC[C@]31[C@@H]54)C2 [Vinorelbine]	97.3	110.2	108.5	94.1	98.4	97.8	75.3	90.2	88.9	89.2	92.4	98.2	93.5	73.1	90.4	92.0	87.6	99.6	92.2	98.1	Long-term stability, 1 month, -20°C Accuracy [%] (validation standard LLOV): 118.3%; Long-term stability, 1 month, -80°C Accuracy [%] (validation standard LLOV): 110.0%; Long-term stability, 2 month, -20°C Accuracy [%] (validation standard LLOV): 98.1%; Long-term stability, 2 month, -80°C Accuracy [%] (validation standard LLOV): 109.4%; Long-term stability, 3 month, -20°C Accuracy [%] (validation standard LLOV): 101.7%; Long-term stability, 3 month, -80°C Accuracy [%] (validation standard LLOV): 118.7%; Long-term stability, 6 weeks, 4°C, without daylight Accuracy [%] (validation standard LLOV): 85.9%; Long-term stability, 6 weeks, 4°C, without daylight Accuracy [%] (validation standard ULOV): 56.9%
CC1(C)CCC(CN2CCN(c3ccc(C(=O)NS(=O)(=O)c4ccc(NCC5CCOCC5)c([N+](=O)[O-])c4)c(Oc4cnc5[nH]ccc5c4)c3)CC2)=C(c2ccc(Cl)cc2)C1 [Venetoclax]	102.9	104.0	104.9	111.9	85.1	101.9	99.8	99.9	103.6	109.3	110.0	100.0	99.6	99.5	108.0	102.7	112.4	114.0	92.9	102.2	Long-term stability, 1 month, -20°C Accuracy [%] (validation standard LLOV): 111.0%; Long-term stability, 1 month, -80°C Accuracy [%] (validation standard LLOV): 109.1%; Long-term stability, 2 month, -20°C Accuracy [%] (validation standard LLOV): 105.5%; Long-term stability, 2 month, -80°C Accuracy [%] (validation standard LLOV): 115.7%; Long-term stability, 3 month, -20°C Accuracy [%] (validation standard LLOV): 101.9%; Long-term stability, 3 month, -80°C Accuracy [%] (validation standard LLOV): 99.3%; Long-term stability, 6 weeks, 4°C, without daylight Accuracy [%] (validation standard LLOV): 92.7%; Long-term stability, 6 weeks, 4°C, without daylight Accuracy [%] (validation standard ULOV): 95.2%
